As a reminder, the IC50 is the point on the concentration scale where inhibition reaches its midpoint.

The source of these data is ChEMBL document CHEMBL1129138, “Nucleosides and nucleotides. 152. 1-(3-C-Ethynyl--D-ribo-pentofuranosyl)uracil as a broad spectrum antitumor nucleoside” (Bioorg Med Chem Lett, 1996).

In experiment [1] the test system is KM12. Kind of experiment: Compound was tested for its percentage inhibitory effect on the growth of KM12C tumor cell line from colon at an iv dose of 2 mg/kg x10. The class given is functional, Homo sapiens.
In the next experiment the test system is SNU-C2A. Put plainly: Compound was tested for its inhibitory effect on the growth of […] tumor cell line from colon. The class given is functional, cell-based. Particulars: Homo sapiens.
Another experiment relates to MKN-28. Kind of experiment: Compound was tested for its inhibitory effect on the growth of MKN-28 tumor cell line from stomach. The class given is functional, cell-based. The conditions noted are these: Homo sapiens.
Experiment [2] deals with PAM12. Put plainly: Compound was tested for its percentage inhibitory effect on the growth of PAN-12 tumor cell line from […] at an iv dose of 2 mg/kg x10. The class given is functional, Homo sapiens.
A further experiment deals with COLO 320DM. Kind of experiment: Compound was tested for its inhibitory effect on the growth of COLO 320DM tumor cell line from colon. The class given is functional, cell-based. Particulars: Homo sapiens.
A further experiment has as its system A549. Kind of experiment: Compound was tested for its inhibitory effect on the growth of A-549 tumor cell line from lung. Format: functional, cell-based. The conditions noted are these: Homo sapiens.
The subject of experiment [3] is DLD-1. Kind of experiment: Compound was tested for its inhibitory effect on the growth of DLD-1 tumor cell line from colon. The class given is functional, cell-based. The conditions noted are these: Homo sapiens.
The next experiment has as its system KKLS. Put plainly: Compound was tested for its inhibitory effect on the growth of KKLS tumor cell line from stomach. The class given is functional, cell-based. Particulars: Homo sapiens.
A further experiment concerns HCT-15. Kind of experiment: Compound was tested for its inhibitory effect on the growth of HCT-15 tumor cell line from colon. Format: functional, cell-based. The conditions noted are these: Homo sapiens.
Experiment [4] deals with BXPC-3. Put plainly: Compound was tested for its percentage inhibitory effect on the growth of BxPC-3 tumor cell line from […] at an iv dose of 2 mg/kg x10. The class given is functional, Homo sapiens.
For experiment [5], the system named is Co-3. Kind of experiment: Compound was tested for its percentage inhibitory effect on the growth of CO-3 tumor cell line from colon at an iv dose of 2 mg/kg x10. Format: functional, Homo sapiens.
In a further experiment the test system is NUGC-3. Kind of experiment: Compound was tested for its inhibitory effect on the growth of NUGC-3 tumor cell line from stomach. The class given is functional, cell-based. Particulars: Homo sapiens.
Another experiment relates to SW48. Kind of experiment: Compound was tested for its inhibitory effect on the growth of SW-48 tumor cell line from colon. The class given is functional, cell-based. The conditions noted are these: Homo sapiens.
Experiment [6] has as its system H-81. Kind of experiment: Compound was tested for its percentage inhibitory effect on the growth of H-81 tumor cell line from stomach at an iv dose of 2 mg/kg x10. Format: functional, Homo sapiens.
A further experiment has as its system PANC-1. Put plainly: Compound was tested for its inhibitory effect on the growth of PANC-1 tumor cell line from pancreas. Format: functional, cell-based. Particulars: Homo sapiens.
Experiment [7] has as its system AZ-521 cell line. Put plainly: Compound was tested for its inhibitory effect on the growth of AZ-521 tumor cell line from stomach. Format: functional, cell-based. The conditions noted are these: Homo sapiens.
The next experiment concerns HT-1080. Kind of experiment: Compound was tested for its inhibitory effect on the growth of HT1080 sarcoma tumor cell line. The class given is functional, cell-based. The conditions noted are these: Homo sapiens.
A further experiment has as its system T-24. Kind of experiment: Compound was tested for its inhibitory effect on the growth of T24 tumor cell line from bladder. Particulars: Homo sapiens. The class given is functional, cell-based.
The subject of a further experiment is MKN-45. Kind of experiment: Compound was tested for its inhibitory effect on the growth of MKN-45 tumor cell line from stomach. Format: functional, cell-based. The conditions noted are these: Homo sapiens.
For experiment [8], the system named is DLD-1. Kind of experiment: Compound was tested for its percentage inhibitory effect on the growth of DLD-1 tumor cell line from colon at an iv dose of 2 mg/kg x10. Format: functional, Homo sapiens.
Experiment [9] concerns AZ-521 cell line. Put plainly: Compound was tested for its percentage inhibitory effect on the growth of AZ-521 tumor cell line from stomach at an iv dose of 2 mg/kg x10. The class given is functional, Homo sapiens.
The subject of experiment [10] is AZ-521 cell line. Put plainly: Compound was tested for its percentage inhibitory effect on the growth of AZ-521 tumor cell line from stomach at an iv dose of 2 mh/kg x10. Format: functional, Homo sapiens.
The test system of experiment [11] is Co-3. Kind of experiment: Compound was tested for its percentage inhibitory effect on the growth of CO-3 tumor cell line from colon at an iv dose of 15 mg/kg x14. Format: functional, Homo sapiens.
In experiment [12] the test system is PAM12. Put plainly: Compound was tested for its percentage inhibitory effect on the growth of PAN-12 tumor cell line from […] at an iv dose of 15 mg/kg x14. Format: functional, Homo sapiens.
Experiment [13] has as its system H-81. Put plainly: Compound was tested for its percentage inhibitory effect on the growth of H-81 tumor cell line from stomach at an iv dose of 15 mg/kg x14. Format: functional, Homo sapiens.
Experiment [14] concerns BXPC-3. Put plainly: Compound was tested for its percentage inhibitory effect on the growth of BxPC-3 tumor cell line from […] at an iv dose of 15 mg/kg x14. The class given is functional, Homo sapiens.
The test system of experiment [15] is DLD-1. Put plainly: Compound was tested for its percentage inhibitory effect on the growth of DLD-1 tumor cell line from colon at an iv dose of 15 mg/kg x14. The class given is functional, Homo sapiens.
The test system of experiment [16] is KM12. Kind of experiment: Compound was tested for its percentage inhibitory effect on the growth of KM12C tumor cell line from colon at an iv dose of 15 mg/kg x14. The class given is functional, Homo sapiens.

Take `C#C[C@]1(O)[C@@H](CO)O[C@@H](n2ccc(=O)[nH]c2=O)[C@@H]1O`: the Tumor inhibition ratio in the experiment with KM12 [1] is 81%; with PAM12 [2], 81%; in the experiment on BXPC-3 [4], 35%; with Co-3 [5] it was 90%; with H-81 [6], 92%; with DLD-1 [8], 73%. Also, the IC50 with SNU-C2A came out at 18 nM; in the experiment on MKN-28 it was 80 nM; in the experiment with COLO 320DM, 60 nM; in the experiment on A549 it was 29 nM; in the experiment with DLD-1 [3], 66 nM; in the experiment with KKLS it was 190 nM. Further, the IC50 was found to be 43 nM in the experiment with HCT-15; 34 nM in the experiment on NUGC-3; 120 nM in the experiment on SW48; 11000 nM in the experiment with PANC-1; 36 nM with AZ-521 cell line [7]; 24 nM with HT-1080. Also, the IC50 in the experiment with T-24 was determined as 34 nM; with MKN-45, 24 nM. Besides, the Ratio in the experiment with AZ-521 cell line [9] was determined as 81.

Regarding `O=c1[nH]c(=O)n([C@@H]2O[C@H](CO)[C@@H](O)[C@H]2O)cc1F` [5-FLUOROURIDINE], the IC50 in the experiment on SNU-C2A was 45 nM; with MKN-28, 28 nM; in the experiment with COLO 320DM, 5.4 nM; with A549 it was 1900 nM; with DLD-1 [3], 73 nM; in the experiment with KKLS it was 16 nM. Moreover, the IC50 in the experiment with HCT-15 worked out at 47 nM; in the experiment on NUGC-3, 22 nM; in the experiment on SW48, 16 nM; in the experiment with PANC-1, 11000 nM; with AZ-521 cell line [7], 50 nM; with HT-1080, 41 nM. The IC50 came out at 14 nM in the experiment with T-24 and 26 nM in the experiment on MKN-45.

Regarding `O=c1[nH]c(=O)n([C@H]2C[C@H](O)[C@@H](CO)O2)cc1F` [FLOXURIDINE], the IC50 was found to be 3.3 nM in the experiment with SNU-C2A; 120 nM with MKN-28; 650 nM in the experiment with COLO 320DM; 1000 nM in the experiment with A549; 92 nM with DLD-1 [3]; 760 nM in the experiment on KKLS. For the same compound, the IC50 is 49 nM with HCT-15; 15 nM with NUGC-3; 130 nM with SW48; over 40000 nM in the experiment with PANC-1; 50 nM in the experiment with AZ-521 cell line [7]; 120 nM in the experiment with HT-1080. Moreover, the figures for the IC50 with T-24 and with MKN-45 were 120 nM and 3500 nM, respectively.

With `O=c1[nH]cc(F)c(=O)[nH]1` [FLUOROURACIL], the IC50 in the experiment on SNU-C2A was 2700 nM; in the experiment with MKN-28, 2500 nM; in the experiment with COLO 320DM, 1100 nM; in the experiment on A549, 1700 nM; with DLD-1 [3] it was 6000 nM; in the experiment on KKLS, 6200 nM. For the same compound, the IC50 with HCT-15 is 5700 nM; with NUGC-3, 4400 nM; in the experiment with SW48, 5700 nM; with PANC-1, over 78000 nM; in the experiment on AZ-521 cell line [7] it was 3900 nM; with T-24 it was 22000 nM. In the experiment on MKN-45, inhibition was half-maximal at 3000 nM (IC50). Further, the Tumor inhibition ratio is listed as 25% in the experiment with AZ-521 cell line [10]; 49% in the experiment on Co-3 [11]; 40% with PAM12 [12]; 83% with H-81 [13]; 50% in the experiment on BXPC-3 [14]; 50% in the experiment on DLD-1 [15]. For the same compound, the Tumor inhibition ratio in the experiment with KM12 [16] is on record as 59%.
